Measured values published in US8084575B2, “Millisecond activation switch for seven-transmembrane proteins” (Julius-Maximilians-Universitat, priority 2002, dated 2011).
Entries after “also recorded” stand apart in the source; their conditions may differ. Where two headings read alike, the source gives them in different places.

Experiments:
[1] = molecular target: T1, α2AAR-cam (Mus musculus, UniProt Q01338); assay: [3H]UK14304 binding to membranes containing α2AAR-cam with exogenous Go protein; details: for Kd: read-out: Kd of agonist binding
T1 construct: expressed in transfected cells; GIRK1 and GIRK4 co-transfected in A8)
Description: Pharmacology. […] Saturation and competition binding studies were analysed with the program Prism to calculate KD- and Ki-values.
Third, binding of G-proteins to receptors is known to enhance formation of the active, agonist-bound state.

[2] = molecular target: T1, α2AAR-cam; assay: FRET in membranes containing α2AAR-cam in the presence of Go proteins; type: biochemical
Description: Membrane preparation. Membrane fractions were obtained after two centrifugations at 4° C., first at 800×g for 10 min and the second at 100,000×g for 30 min. Membranes were treated with 6 M urea in 20 mM Hepes, pH 7.4, for 30 min on ice followed by centrifugation at 100,000×g for 15 min. After two washing steps at 4° C. in buffer B the membranes were resuspended in a buffer A (without BSA) and immediately used in the experiments. 20 μl aliquots of membranes were subjected to fluorescence microscopy similar to intact cells using a 20× objective.

[3] = system: A2A receptors; assay: 3H-NECA radioligand binding, adenosine receptor constructs in transiently transfected COS cells; parameters: species or system human
Description: FIG. 12: Pharmacological properties of the Adenosine receptor constructs. A-B) Comparison between the binding (A) and signalling properties (B) of several adenosine receptor constructs with their respective wild-type receptor in transiently transfected COS cells. Adenylylcyclases activity was determined in membranes from transiently transfected COS cells as previously published (Jakobs et al., J cyclic Nucleotide Res 2 (1976) 381-392, Klotz et al., Naunyn-Schmiedeberg's Arch Pharmacol 357 (1998) 1-9). […] Data are the mean±sd of at least 3 separate experiments.

[4] = system: A2A-CFP14/10-YFPC33; assay: Intramolecular FRET (nFRET) in HEK293 cells transfected with A2A-CFP14/10-YFPC33; type: cell-based, human
Description: 12 h post transfection cells were replated on glass coverslips coated with poly-L-lysine and cultured for another 12-36 h.
Cells were continuously superfused with control solution (in mM: 140 NaCl; 5.4 KCl; 2 CaCl2; 1 mM MgCl2; 10 mM Glucose and 10 HEPES/NaOH pH 7.3) using a fast solenoid valve operated superfusion system ALA-VM8 (ALA Scientific Instruments).

[5] = molecular target: T1, α2AAR-cam; type: cell-based
[6] = molecular target: T2, α2AAR (Mus musculus, UniProt Q01338); assay: Competition ligand binding, wild-type α2AAR stably expressed in HEK293 cells; details: read-out: noradrenaline affinity Ki
T2 construct: expressed in transfected cells
T2 sequence (Q01338 with tags, fused parts or gaps): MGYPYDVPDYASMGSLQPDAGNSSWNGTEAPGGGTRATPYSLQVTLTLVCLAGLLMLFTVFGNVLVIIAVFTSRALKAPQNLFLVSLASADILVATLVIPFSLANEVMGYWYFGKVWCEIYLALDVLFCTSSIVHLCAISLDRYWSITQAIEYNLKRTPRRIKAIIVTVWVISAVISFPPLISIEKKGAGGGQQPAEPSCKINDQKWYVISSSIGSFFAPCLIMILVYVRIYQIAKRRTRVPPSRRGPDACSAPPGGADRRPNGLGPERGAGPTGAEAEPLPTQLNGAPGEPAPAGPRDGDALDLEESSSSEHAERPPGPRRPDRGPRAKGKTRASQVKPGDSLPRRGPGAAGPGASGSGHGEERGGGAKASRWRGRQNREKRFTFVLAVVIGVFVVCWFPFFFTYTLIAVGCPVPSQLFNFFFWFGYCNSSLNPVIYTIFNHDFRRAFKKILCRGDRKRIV
Description: (§1) Pharmacology. Ligand binding, receptor number determination, cAMP assays, measurement of α2A-adrenergic receptor-activated GIRK currents and reconstitution of receptor-Go coupling were measured as previously described (Vilardaga, (2001) loc. cit.; Bünemann, J. Bio. Chem. 276 (2001), 47512-47517; Vilardaga, J. Biol. Chem. 277 (2002), 8121-8129; Richardson, J. Biol. Chem. 274 (1999), 13525-13533). Saturation and competition binding studies were analysed with the program Prism to calculate KD- and Ki-values.

[7] = molecular target: T1, α2AAR-cam; assay: Competition ligand binding, α2AAR-cam stably expressed in HEK293 cells; details: read-out: noradrenaline affinity Ki
Description: as §1

[8] = molecular target: T1, α2AAR-cam; assay: FRET in neuronal PC-12 cells stably expressing α2AAR-cam, agonist versus inverse agonists; type: cell-based; details: 100 μM
Description: As documented in the appended examples, an illustrative recombinant α2A-adrenergic receptor (α2AAR-cam) was employed, whereby said α2A-adrenergic receptor (α2AAR-cam) comprises the two detectable labels YFP and CFP on the first intracellular loop and the third intracellular loop.
The α2AAR-cam receptors were stably expressed in the neuronal cell line PC-12. […] The signals were recorded before and after exposure to agonist (NA: noradrenaline, 100 μM) and two different inverse agonists (Yoh: yohimbine and Rau:rauwolscine, 100 μM).

[9] = molecular target: T3, PTHR-cam (Homo sapiens, UniProt Q03431, INS395[…]); assay: FRET (ratio F*535/F*480) in single HEK293 cells expressing PTHR-cam; type: cell-based; details: intact HEK293 cells; PTH 1 μM, PTH(7-34) 3 μM
T3 construct: expressed in transfected cells

[10] = system: PTHR-CFP3-loop and PTHR-YFPC-term; details: absence or presence of PTH 1 μM
[11] = molecular target: T1, α2AAR-cam; assay: α2A-adrenergic receptor-activated whole cell GIRK currents in HEK293 cells; type: cell-based
Description: as §1
Electrophysiology. Whole cell GIRK currents were measured in HEK293 cells stably expressing 6 pmol/mg membrane protein α2AR-cam 20-28 h after transient transfection with GIRK1 and GIRK4 as described previously (Bünemann, (2001), loc. cit.). Membrane currents were recorded using an EPC 9 amplifier and Pulse software (HEKA Instruments) for voltage control, data acquisition and data evaluation. Experimental conditions such as patch pipettes, internal and external solutions, voltage-clamp protocol as well as the superfusion system were the same as described previously (Bünemann, (2001), loc. cit.).

Question: Which results are given for `Nc1nc2c(ncn2[C@@H]2O[C@H](COP(=O)(O)OP(=O)(O)OP(O)(O)=S)[C@@H](O)[C@H]2O)c(=O)[nH]1` [GTPγS]?
Answer: reduction of the binding of 5 nM [3H]UK14304 ([1]; GTPγS 10 μM, Go present): more than 50%; effect on FRET signal of saturating concentrations of UK14304 ([2]; GTPγS): did not affect; reduction of FRET signals caused by 5 nM UK14304 ([2]; GTPγS 10 μM, Go present): more than 50%

Question: For `Brc1c(NC2=NCCN2)ccc2nccnc12` [UK14304], which “decrease of binding affinity in presence of GTPγS” value ([1]; 10 μM GTPγS) is on record?
Answer: The value was “≈ 3 fold”.

Question: What about the Kd ([1]; exogenous Go (receptor:Go 1:100), without GTPγS) of the same compound?
Answer: Its Kd is 3.4 ± 0.8 nM.

Question: And the Kd ([1]; exogenous Go, in presence of 10 μM GTPγS)?
Answer: Its Kd is 9.6 ± 1.1 nM.

Question: Which “radioligand binding compared with wild-type A2A receptor” value [3] does the source give for `CCNC(=O)[C@H]1O[C@@H](n2cnc3c(N)ncnc32)[C@H](O)[C@@H]1O` [^3H-NECA] here?
Answer: The value was “no significant difference”.

Question: For `Nc1ncnc2c1ncn2[C@@H]1O[C@H](CO)[C@@H](O)[C@H]1O` [adenosine], which “time for nFRET to return to initial value after withdrawal of agonist” value [4] is on record?
Answer: Its value is 5 to 10 s.

Question: `Clc1cccc(Cl)c1N=C1NCCN1` [clonidine] was tested. Which “FRET signal compared to the full agonist noradrenaline” value [5] did it give?
Answer: Its value is “three-fold smaller”.

Question: And the “effect of simultaneous addition on noradrenaline response” value [5]?
Answer: Its value is “restored this response back to the partial response”.

Question: How did the Ki [6] turn out when `NC[C@H](O)c1ccc(O)c(O)c1` [noradrenaline] was run?
Answer: Its Ki is 5000 ± 800 nM.

Question: And the Ki [7]?
Answer: Its Ki is 16700 ± 1400 nM.

Question: And the “change of FRET signal, given alone” value [5]?
Answer: The value was “decline of the FRET signal; also recorded: rapid decrease of the FRET signal”.

Question: And the “maximal apparent rate constant kobs” value [5]?
Answer: The value was ~26 s⁻¹.

Question: What about the “time constant required for receptor activation” value [5] of the same compound?
Answer: The value was “less than 40 ms”.

Question: What about the “times faster than activation of chemically labelled purified β2-adrenergic receptors” value [5] of the same compound?
Answer: The value was “more than 5000 times”.

Question: How did the “change of FRET signal, given alone” value [5] turn out when `Cc1ccc(N(CC2=NCCN2)c2cccc(O)c2)cc1` [phentolamine] was run?
Answer: The value was “did not alter the FRET signal”.

Question: And the “effect on the noradrenaline-induced FRET signal” value [5]?
Answer: Its value is “rapidly reverted the noradrenaline-induced signal”.

Question: With `COC(=O)[C@H]1[C@H]2C[C@H]3c4[nH]c5ccccc5c4CCN3C[C@H]2CC[C@@H]1O` [rauwolscine] as the compound, how does the “conformational change of the receptor relative to agonist noradrenaline” value [8] read?
Answer: The value was “opposite conformational changes”.

Question: Which “conformational change of the receptor relative to agonist noradrenaline” value [8] does the source give for `COC(=O)[C@@H]1[C@H]2C[C@H]3c4[nH]c5ccccc5c4CCN3C[C@@H]2CC[C@@H]1O` [yohimbine] here?
Answer: The value was “opposite conformational changes”.

Question: How did the “change in FRET signal” value [9] turn out when “PTH7-34: truncated variant of PTH, a low affinity antagonist (LMHNLGKHLNSMERVEWLRKKLQDVHNF; Parathyroid hormone; UniProt P01270 38-65, looked up, fragment)” was run?
Answer: The value was “failed to induce a change in FRET”.

Question: Which “intermolecular FRET” value [10] does the source give for “PTH: parathyroid hormone, agonist of the PTH receptor” here?
Answer: Its value is “no FRET”.

Question: Which “effect of inactivating Gi and Go on noradrenaline-induced FRET signal” value [5] does the source give for pertussis toxin here?
Answer: Its value is “did not affect”.

Question: With “α2AAR-cam: mouse α2A-adrenergic receptor with YFP in third intracellular loop and CFP on C-terminus, SEQ ID NOS: 11 and 12” as the compound, how does the “speed of GIRK current activation versus wild type α2AAR” value [11] read?
Answer: Its value is “not faster than the wild type”.
